Data on 2 molecules can be found in patent US20050026833A1, “PSP-94: use for treatment of hypercalcemia and bone metastasis” (priority 2001, published 2005).

Test [1] deals with PTHrP. As to the kind of experiment: Tumoral PTHrP production by immunohistochemistry of primary tumors. In kind it is in vivo, male Copenhagen rats. As for the experimental part:
Histologic Analysis. For immunohistological analysis, primary tumor samples were dewaxed by heating at 60° C. and rehydrated in a graded alcohol series (100%-70%). Anti-rat antibody against PTHrP was used as the primary antibody. Tumor sections were incubated overnight at 4° C. followed by further incubation with biotinylated universal antibody (Vector Laboratories, Burlingame, Calif.) for 45-60 minutes. Sections were rinsed with TBST (Tris buffered saline-Tween) followed by incubation with Vectastain ABC-AP Reagent (Vector Laboratories, Burlingame, Calif.) for 30 minutes. These sections were again washed with TBST and incubated with a Napthol AS-Mix Phosphate/Fast Red solution (Sigma-Aldriche, Oakville, ON). The sections were finally counterstained with Methyl Green (Vector Laboratories, Burlingame, Calif.) and mounted.
Alternatively, paraffin embedded tumor samples were cut into 5 um-thick sections for immunohistochemical analysis. […]
Tumors from control group treated with vehicle alone and experimental groups treated with different doses of PSP-94 (0.1-10.0 μg/kg/day) were excised, paraffin embedded, and sectioned and analyzed for tumoral PTHrP production by immunohistochemical reaction specific for PTHrP using method described herein. […] Three animals were present in each group and three tumor sections were analyzed for each animal by evaluating at least ten random fields of observation.
Primary tumors from control vehicle treated animals and animals treated with the highest dose of PCK3145 (100.0 ug/kg/day) were removed, paraffin embedded, and sectioned. […] Therefore, tumors from control group treated with vehicle alone and experimental group treated with the highest dose of PCK3145 (100.0 ug/kg/day) were excised and analyzed for tumoral PTHrP production by immunohistochemical analysis. […] No reaction was seen when these tumors were evaluated for background reaction in the absence of PTHrP antibody (NC).

In test [2] the test system is PTHrP. Description: Plasma PTHrP radioimmunoassay in tumor bearing animals. The format is in vivo, male Copenhagen rats. The procedure:
Control animals received PBS alone as vehicle control.
Other Analytical Methods. Plasma calcium levels were determined by atomic absorption spectrophotometry (model 703, Perkin-Elmer, Norwalk, Conn.). For plasma PTHrP, all samples were tested in two dilutions in PTHrP radio-immunoassay (R.I.A.) kit (Nichols Institute Diagnostics, San Juan Capistrano, Calif.) according to manufacturer's instructions.
Comparison was made between plasma collected from normal, non-tumor bearing animals (N), control tumor bearing animals receiving vehicle alone (CTL) and plasma collected from experimental animals receiving different doses of PSP-94 (0.1-10.0 ug/kg/day). Plasma calcium levels were determined by atomic absorption spectrophotometry (model 703, Perkin-Elmer, Norwalk, Conn.). For plasma PTHrP, all samples were tested in two dilutions in PTHrP R.I.A. kit (Nichols Institute Diagnostics, San Juan Capistrano, Calif.) according to manufacturers instructions.
FIGS. 10A and 10B show male Copenhagen rats inoculated s.c. with 10^6 Mat Ly Lu-PTHrP cells. Following 3 days of tumor cell inoculation, animals were treated with vehicle alone (Ctl) or different doses (1.0, or 10.0 ug/kg/day) of PSP-94 for 18 days. Animals were sacrificed on day 21 and plasma PTHrP (FIG. 10A; expressed in picomole equivalents/liter) or plasma calcium (FIG. 10B; expressed in millimolar (mM)) levels were determined. Results for non-tumor bearing animals are also shown (N).
Comparison was made between plasma collected from normal, non-tumor bearing animals, control tumor bearing animals receiving vehicle alone and experimental animals receiving different doses of PCK3145 (1.0-100.0 ug/kg/day). […] Plasma PTHrP levels in normal non-tumor bearing animals are also shown (N).

For “E W Q T D N C E T C T C Y E T (EWQTDNCETCTCYET; PCK3145 (polypeptide 31-45))”, the “tumoral PTHrP production (PTHrP immuno-staining)” value in the test with PTHrP [1] (100.0 ug/kg PCK3145, relative to lower doses) was “most pronounced”; with PTHrP [1] (different doses of PCK3145 (data not shown), vs vehicle) it was “dose dependent decrease”. Moreover, in the test with PTHrP [2] (PCK3145 1.0-100.0 ug/kg/day, day 16, vs vehicle), the “plasma PTHrP levels” value is “dose-dependent decrease”.

B1: PSP-94: prostate secretory protein of 94 amino acids; native human seminal plasma PSP-94 (protein)
chain: SCYFIPNEGVPGDSTRKCMDLKGNKHPINSEWQTDNCETCTCYETEISCCTLVSTPVGYDKDNCQRIFKKEDCKYIVVEKKDPKKTCSVSEWII
As to B1, in the test on PTHrP [1] (PSP-94 0.1-10.0 ug/kg/day, vs vehicle), the “tumoral PTHrP production (PTHrP immunostaining)” value was “same dose-dependent decrease”. Further, the “plasma PTHrP levels” value is reported as “near normalization” with PTHrP [2] (10.0 ug/kg/day PSP-94) and “dose-dependent decrease” with PTHrP [2] (PSP-94 0.1-10.0 ug/kg/day, day 16, vs vehicle).
